Assay results taken from patent US7846945B2, “Piperdine-based inhibitors of sodium glucose co-transporter 2 and methods of their use” (Lexicon Pharmaceuticals, Inc., priority 2007, dated 2010).

biological target: T1, Human sodium/glucose co-transporter type 2 (SGLT2) (Homo sapiens, UniProt P31639); experiment: In vitro human SGLT2 inhibition assay (14C-AMG uptake); assay type: cell-based; details: HEK293 cells expressing human HA-SGLT2; potent = SGLT2 IC50 of less than about 500 nM; read-out: SGLT2 IC50 (potent SGLT2 inhibitor mark)
T1 construct: HA; expressed in transfected cells
T1 sequence (P31639 1-672): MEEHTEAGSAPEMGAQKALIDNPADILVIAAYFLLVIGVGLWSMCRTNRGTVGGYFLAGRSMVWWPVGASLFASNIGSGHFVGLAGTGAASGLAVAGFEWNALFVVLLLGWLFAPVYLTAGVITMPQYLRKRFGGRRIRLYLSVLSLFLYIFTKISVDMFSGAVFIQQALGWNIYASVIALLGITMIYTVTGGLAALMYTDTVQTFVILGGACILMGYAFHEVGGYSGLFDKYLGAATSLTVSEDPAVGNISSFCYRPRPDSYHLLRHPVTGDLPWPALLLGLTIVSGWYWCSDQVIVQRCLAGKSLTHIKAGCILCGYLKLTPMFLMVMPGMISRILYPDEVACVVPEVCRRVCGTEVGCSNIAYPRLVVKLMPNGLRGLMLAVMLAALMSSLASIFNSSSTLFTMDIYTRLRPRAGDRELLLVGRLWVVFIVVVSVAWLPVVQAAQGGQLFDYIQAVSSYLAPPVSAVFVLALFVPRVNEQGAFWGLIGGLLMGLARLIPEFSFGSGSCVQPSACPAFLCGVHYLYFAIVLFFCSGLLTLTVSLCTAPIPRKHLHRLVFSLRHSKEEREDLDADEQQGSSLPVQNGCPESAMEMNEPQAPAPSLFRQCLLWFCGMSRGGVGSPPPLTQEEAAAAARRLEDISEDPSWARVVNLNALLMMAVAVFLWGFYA
Protocol: HEK293 cells were transfected with the human HA-SGLT2-pIRESpuro2 vector and the bulk stable cell line was selected in presence of 0.5 μg/ml of puromycin. Human HA-SGLT2 cells were maintained in DMEM media containing 10% FBS, 1% GPS and 0.5 μg/ml of puromycin.
The HEK293 cells expressing the human HA-SGLT2 were seeded in 384 well plates (30,000 cells/well) in DMEM media containing 10% FBS, 1% GPS and 0.5 μg/ml of puromycin, then incubated overnight at 37 C, 5% CO2. Cells were then washed with uptake buffer (140 mM NaCl, 2 mM KCl, 1 mM CaCl2, 1 mM MgCl2, 10 mM HEPES, 5 mM Tris, 1 mg/ml bovine serum albumin (BSA), pH 7.3). Twenty microliters of uptake buffer with or without testing compounds were added to the cells. Then, 20 microliters of uptake buffer containing ^14C-AMG (100 nCi) were added to the cells. The cell plates were incubated at 37° C., 5% CO2 for 1-2 hours. After washing the cells with uptake buffer, scintillation fluid was added (40 microliters/well) and ^14C-AMG uptake was measured by counting radioactivity using a scintillation coulter (TopCoulter NXT; Packard Instruments).
The IC50 of a compound with regard to a given target is determined by fitting the relevant data, using the Levenburg Marquardt algorithm, to the equation: y=A+((B−A)/(1+((C/x)^D))) wherein A is the minimum y value; B is the maximum y value; C is the IC50; and D is the slope.

IC50, < 500 nM:
CCOc1ccc(Cc2cc([C@H]3[C@H](O)[C@@H](O)[C@H](O)CN3C(C)=O)ccc2Cl)cc1 [1-{(2S,3S,4S,5R)-2-[4-Chloro-3-(4-ethoxy-benzyl)-phenyl]-3,4,5-trihydroxy-piperidin-1-yl}-ethanone]
CCOc1ccc(Cc2cc([C@@H]3O[C@H](SCC(N)=O)[C@@H](O)[C@H](O)[C@H]3O)ccc2Cl)cc1 [2-{(2R,3S,4R,5R,6S)-6-[4-Chloro-3-(4-ethoxy-benzyl)-phenyl]-3,4,5-trihydroxy-tetrahydro-pyran-2-ylsulfanyl}-acetamide]
CCOc1ccc(Cc2cc([C@H]3[C@H](O)[C@@H](O)[C@H](O)CN3CC(N)=O)ccc2Cl)cc1 [2-{(2S,3S,4S,5R)-2-[4-Chloro-3-(4-ethoxy-benzyl)-phenyl]-3,4,5-trihydroxy-piperidin-1-yl}-acetamide]
CCOc1ccc(-c2cccc([C@@H]3OC(OC)[C@@H](O)[C@H](O)[C@H]3O)c2)cc1 (stereo partly drawn) [(2S,3R,4R,5S)-2-(4′-Ethoxy-biphenyl-3-yl)-6-methoxy-tetrahydro-pyran-3,4,5-triol]
CCOc1ccc(Cc2cc([C@@H]3OC(OC)[C@@H](O)[C@H](O)[C@H]3O)ccc2C)cc1 (stereo partly drawn) [(2S,3R,4R,5S)-2-[3-(4-Ethoxy-benzyl)-4-methyl-phenyl]-6-methoxy-tetrahydro-pyran-3,4,5-triol]
CCOc1ccc(Cc2cccc([C@@H]3OC(OC)[C@@H](O)[C@H](O)[C@H]3O)c2)cc1 (stereo partly drawn) [(2S,3R,4R,5S)-2-[3-(4-Ethoxy-benzyl)-phenyl]-6-methoxy-tetrahydro-pyran-3,4,5-triol]
CCOc1ccc(Cc2cc([C@@H]3OC(OCC(F)(F)F)[C@@H](O)[C@H](O)[C@H]3O)ccc2Cl)cc1 (stereo partly drawn) [(2S,3R,4R,5S)-2-[4-Chloro-3-(4-ethoxy-benzyl)-phenyl]-6-(2,2,2-trifluoro-ethoxy)-tetrahydro-pyran-3,4,5-triol]
CCOc1ccc(Cc2cc([C@@H]3OC(OCC(O)CO)[C@@H](O)[C@H](O)[C@H]3O)ccc2Cl)cc1 (stereo partly drawn) [(2S,3R,4R,5S)-2-[4-Chloro-3-(4-ethoxy-benzyl)-phenyl]-6-(2,3-dihydroxy-propoxy)-tetrahydro-pyran-3,4,5-triol]
CCOc1ccc(Cc2cc([C@@H]3OC(OCCN(C)C)[C@@H](O)[C@H](O)[C@H]3O)ccc2Cl)cc1 (stereo partly drawn) [(2S,3R,4R,5S)-2-[4-Chloro-3-(4-ethoxy-benzyl)-phenyl]-6-(2-dimethylamino-ethoxy)-tetrahydro-pyran-3,4,5-triol]
CCOc1ccc(Cc2cc([C@@H]3OC(OCCS)[C@@H](O)[C@H](O)[C@H]3O)ccc2Cl)cc1 (stereo partly drawn) [(2S,3R,4R,5S)-2-[4-Chloro-3-(4-ethoxy-benzyl)-phenyl]-6-(2-mercapto-ethoxy)-tetrahydro-pyran-3,4,5-triol]
CCOc1ccc(Cc2cc([C@@H]3OC(OCCOC)[C@@H](O)[C@H](O)[C@H]3O)ccc2Cl)cc1 (stereo partly drawn) [(2S,3R,4R,5S)-2-[4-Chloro-3-(4-ethoxy-benzyl)-phenyl]-6-(2-methoxy-ethoxy)-tetrahydro-pyran-3,4,5-triol]
CCOc1ccc(Cc2cc([C@@H]3OC(OCCCO)[C@@H](O)[C@H](O)[C@H]3O)ccc2Cl)cc1 (stereo partly drawn) [(2S,3R,4R,5S)-2-[4-Chloro-3-(4-ethoxy-benzyl)-phenyl]-6-(3-hydroxy-propoxy)-tetrahydro-pyran-3,4,5-triol]
CCCSC1O[C@@H](c2ccc(Cl)c(Cc3ccc(OCC)cc3)c2)[C@H](O)[C@@H](O)[C@@H]1O (stereo partly drawn) [(2S,3R,4R,5S)-2-[4-Chloro-3-(4-ethoxy-benzyl)-phenyl]-6-propylsulfanyl-tetrahydro-pyran-3,4,5-triol]
COc1ccc(Sc2cc([C@@H]3OC(OC)[C@@H](O)[C@H](O)[C@H]3O)ccc2Cl)cc1 (stereo partly drawn) [(2S,3R,4R,5S)-2-[4-Chloro-3-(4-methoxy-phenylsulfanyl)-phenyl]-6-methoxy-tetrahydro-pyran-3,4,5-triol]
COC1O[C@@H](c2ccc(Cl)c(Cc3ccc(OCCOCc4ccccc4)cc3)c2)[C@H](O)[C@@H](O)[C@@H]1O (stereo partly drawn) [(2S,3R,4R,5S)-2-{3-[4-(2-Benzyloxy-ethoxy)-benzyl]-4-chloro-phenyl}-6-methoxy-tetrahydro-pyran-3,4,5-triol]
COC1O[C@@H](c2cccc(Cc3ccc(OCCO)cc3)c2)[C@H](O)[C@@H](O)[C@@H]1O (stereo partly drawn) [(2S,3R,4R,5S)-2-{3-[4-(2-Hydroxy-ethoxy)-benzyl]-phenyl}-6-methoxy-tetrahydro-pyran-3,4,5-triol]
COC1O[C@@H](c2ccc(Cl)c(Cc3ccc(OC4CCN(C)CC4)cc3)c2)[C@H](O)[C@@H](O)[C@@H]1O (stereo partly drawn) [(2S,3R,4R,5S)-2-{4-Chloro-3-[4-(1-methyl-piperidin-4-yloxy)-benzyl]-phenyl}-6-methoxy-tetrahydro-pyran-3,4,5-triol]
COc1cc(Oc2ccc(Cc3cc([C@@H]4OC(OC)[C@@H](O)[C@H](O)[C@H]4O)ccc3Cl)cc2)nc(OC)n1 (stereo partly drawn) [(2S,3R,4R,5S)-2-{4-Chloro-3-[4-(2,6-dimethoxy-pyrimidin-4-yloxy)-benzyl]-phenyl}-6-methoxy-tetrahydro-pyran-3,4,5-triol]
COC1O[C@@H](c2ccc(Cl)c(Cc3ccc(OCCO)cc3)c2)[C@H](O)[C@@H](O)[C@@H]1O (stereo partly drawn) [(2S,3R,4R,5S)-2-{4-Chloro-3-[4-(2-hydroxy-ethoxy)-benzyl]-phenyl}-6-methoxy-tetrahydro-pyran-3,4,5-triol]
COCCOc1ccc(Cc2cc([C@@H]3OC(OC)[C@@H](O)[C@H](O)[C@H]3O)ccc2Cl)cc1 (stereo partly drawn) [(2S,3R,4R,5S)-2-{4-Chloro-3-[4-(2-methoxy-ethoxy)-benzyl]-phenyl}-6-methoxy-tetrahydro-pyran-3,4,5-triol]
COC1O[C@@H](c2ccc(Cl)c(Cc3ccc(OCCSC)cc3)c2)[C@H](O)[C@@H](O)[C@@H]1O (stereo partly drawn) [(2S,3R,4R,5S)-2-{4-Chloro-3-[4-(2-methylsulfanyl-ethoxy)-benzyl]-phenyl}-6-methoxy-tetrahydro-pyran-3,4,5-triol]
COC1O[C@@H](c2ccc(Cl)c(Cc3ccc(O[C@H]4CCN(C)C4)cc3)c2)[C@H](O)[C@@H](O)[C@@H]1O (stereo partly drawn) [(2S,3R,4R,5S)-2-{4-Chloro-3-[4-((S)-1-methyl-pyrrolidin-3-yloxy)-benzyl]-phenyl}-6-methoxy-tetrahydro-pyran-3,4,5-triol]
COC1O[C@@H](c2ccc(Cl)c(Cc3ccc(Oc4ccncc4)cc3)c2)[C@H](O)[C@@H](O)[C@@H]1O (stereo partly drawn) [(2S,3R,4R,5S)-2-{4-Chloro-3-[4-(pyridin-4-yloxy)-benzyl]-phenyl}-6-methoxy-tetrahydro-pyran-3,4,5-triol]
COC1O[C@@H](c2ccc(Cl)c(Cc3ccc(Oc4cncnc4)cc3)c2)[C@H](O)[C@@H](O)[C@@H]1O (stereo partly drawn) [(2S,3R,4R,5S)-2-{4-Chloro-3-[4-(pyrimidin-5-yloxy)-benzyl]-phenyl}-6-methoxy-tetrahydro-pyran-3,4,5-triol]
COC1O[C@@H](c2ccc(Cl)c(Cc3ccc(OC4CCOCC4)cc3)c2)[C@H](O)[C@@H](O)[C@@H]1O (stereo partly drawn) [(2S,3R,4R,5S)-2-{4-Chloro-3-[4-(tetrahydro-pyran-4-yloxy)-benzyl]-phenyl}-6-methoxy-tetrahydro-pyran-3,4,5-triol]
COC1O[C@@H](c2ccc(Cl)c(Cc3ccc(Oc4nccs4)cc3)c2)[C@H](O)[C@@H](O)[C@@H]1O (stereo partly drawn) [(2S,3R,4R,5S)-2-{4-Chloro-3-[4-(thiazol-2-yloxy)-benzyl]-phenyl}-6-methoxy-tetrahydro-pyran-3,4,5-triol]
